Assay results taken from PubChem BioAssay AID2060894 (Molecular Pharmacology Branch, DTP, NCI, 2025).

Tested on: K12877-001-R-J1-PDC complex spheroid viability
Experiment: Anticancer human tumor K12877-001-R-J1-PDC patient-derived lung adenocarcinoma cell line growth inhibition [RAS]
Conditions: for IC50: curve of first compound; for viability, T/C: stronger effect = lower value
Procedure, shortened: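 Tumour cells grown as complex spheroids with HUVEC endothelial cells and mesenchymal stem cells, treated with RAS pathway inhibitor combinations. Each agent spans half-log steps from near clinical Cmax, or 10 microM where Cmax is unknown.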
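Note: spheroids exposed to agents for one week before readout.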
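Throughout, for viability, T/C: tumour cells co-cultured with HUVEC and mesenchymal stem cells in spheroids.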

## CC(C)NCC(C(=O)N1CCN(c2ncnc3c2C(C)CC3O)CC1)c1ccc(Cl)cc1 (centres undefined) + C=CC(=O)N1CCN(c2nc(OCC3CCCN3C)nc3c(F)c(-c4nc(N)cc(C)c4C(F)(F)F)c(Cl)cc23)C(C)C1
Second compound 0.00316 µM
  IC50: 2240 nM
Second compound 0.01 µM
  IC50: 1560 nM
Second compound 0.0316 µM
  IC50: 1400 nM
Second compound 0.1 µM
  IC50: 1420 nM
Second compound 0.316 µM
  IC50: 934 nM
Second compound 1 µM
  IC50: 1540 nM
Second compound 0.00316 µM, first compound 0.0316 µM
  viability, T/C: 87.9%
Second compound 0.00316 µM, first compound 0.1 µM
  viability, T/C: 86.1%
Second compound 0.00316 µM, first compound 0.316 µM
  viability, T/C: 74.5%
Second compound 0.00316 µM, first compound 1 µM
  viability, T/C: 78.4%
Second compound 0.00316 µM, first compound 3.16 µM
  viability, T/C: 38%
Second compound 0.00316 µM, first compound 10 µM
  viability, T/C: 22%
Second compound 0.01 µM, first compound 0.0316 µM
  viability, T/C: 82.8%
Second compound 0.01 µM, first compound 0.1 µM
  viability, T/C: 89.2%
Second compound 0.01 µM, first compound 0.316 µM
  viability, T/C: 68.8%
Second compound 0.01 µM, first compound 1 µM
  viability, T/C: 65.8%
Second compound 0.01 µM, first compound 3.16 µM
  viability, T/C: 30.2%
Second compound 0.01 µM, first compound 10 µM
  viability, T/C: 18%
Second compound 0.0316 µM, first compound 0.0316 µM
  viability, T/C: 85.5%
Second compound 0.0316 µM, first compound 0.1 µM
  viability, T/C: 90.6%
Second compound 0.0316 µM, first compound 0.316 µM
  viability, T/C: 73.3%
Second compound 0.0316 µM, first compound 1 µM
  viability, T/C: 63.3%
Second compound 0.0316 µM, first compound 3.16 µM
  viability, T/C: 23.7%
Second compound 0.0316 µM, first compound 10 µM
  viability, T/C: 17.6%
Second compound 0.1 µM, first compound 0.0316 µM
  viability, T/C: 84%
Second compound 0.1 µM, first compound 0.1 µM
  viability, T/C: 71.5%
Second compound 0.1 µM, first compound 0.316 µM
  viability, T/C: 82.4%
Second compound 0.1 µM, first compound 1 µM
  viability, T/C: 63.2%
Second compound 0.1 µM, first compound 3.16 µM
  viability, T/C: 20.2%
Second compound 0.1 µM, first compound 10 µM
  viability, T/C: 16.7%
Second compound 0.316 µM, first compound 0.0316 µM
  viability, T/C: 79.9%
Second compound 0.316 µM, first compound 0.1 µM
  viability, T/C: 79.9%
Second compound 0.316 µM, first compound 0.316 µM
  viability, T/C: 68.2%
Second compound 0.316 µM, first compound 1 µM
  viability, T/C: 51%
Second compound 0.316 µM, first compound 3.16 µM
  viability, T/C: 23.5%
Second compound 0.316 µM, first compound 10 µM
  viability, T/C: 19.5%
Second compound 1 µM, first compound 0.0316 µM
  viability, T/C: 87.8%
Second compound 1 µM, first compound 0.1 µM
  viability, T/C: 75.7%
Second compound 1 µM, first compound 0.316 µM
  viability, T/C: 84.4%
Second compound 1 µM, first compound 1 µM
  viability, T/C: 58.6%
Second compound 1 µM, first compound 3.16 µM
  viability, T/C: 33.9%
Second compound 1 µM, first compound 10 µM
  viability, T/C: 20.9%

## CC1(C)CCC(Nc2ncc(C(F)(F)F)c(-c3c[nH]c4c(P(C)(C)=O)c(C#N)ccc34)n2)CN1 (centres undefined) + CCn1c(-c2cccnc2C(C)OC)c2c3cc(ccc31)N1CCOC(CC(NC(=O)C(C(C)C)N(C)C(=O)C3(F)CCN(C(=O)C#CC(C)(C)N(C)C)CC3)C(=O)N3CCCC(N3)C(=O)OCC(C)(C)C2)C1
Second compound 0.000949 µM
  IC50: 16.8 nM
Second compound 0.003 µM
  IC50: 15.1 nM
Second compound 0.00949 µM
  IC50: 13.2 nM
Second compound 0.03 µM
  IC50: 15.9 nM
Second compound 0.0949 µM
  IC50: 13.8 nM
Second compound 0.3 µM
  IC50: 11 nM
Second compound 0.000949 µM, first compound 0.000949 µM
  viability, T/C: 88.3%
Second compound 0.000949 µM, first compound 0.003 µM
  viability, T/C: 79%
Second compound 0.000949 µM, first compound 0.00949 µM
  viability, T/C: 63.7%
Second compound 0.000949 µM, first compound 0.03 µM
  viability, T/C: 36.4%
Second compound 0.000949 µM, first compound 0.0949 µM
  viability, T/C: 24.2%
Second compound 0.000949 µM, first compound 0.3 µM
  viability, T/C: 18.5%
Second compound 0.003 µM, first compound 0.000949 µM
  viability, T/C: 80.2%
Second compound 0.003 µM, first compound 0.003 µM
  viability, T/C: 81%
Second compound 0.003 µM, first compound 0.00949 µM
  viability, T/C: 57.8%
Second compound 0.003 µM, first compound 0.03 µM
  viability, T/C: 35.9%
Second compound 0.003 µM, first compound 0.0949 µM
  viability, T/C: 24.9%
Second compound 0.003 µM, first compound 0.3 µM
  viability, T/C: 18%
Second compound 0.00949 µM, first compound 0.000949 µM
  viability, T/C: 74.1%
Second compound 0.00949 µM, first compound 0.003 µM
  viability, T/C: 71.8%
Second compound 0.00949 µM, first compound 0.00949 µM
  viability, T/C: 55.3%
Second compound 0.00949 µM, first compound 0.03 µM
  viability, T/C: 35.1%
Second compound 0.00949 µM, first compound 0.0949 µM
  viability, T/C: 22.7%
Second compound 0.00949 µM, first compound 0.3 µM
  viability, T/C: 17.1%
Second compound 0.03 µM, first compound 0.000949 µM
  viability, T/C: 74.7%
Second compound 0.03 µM, first compound 0.003 µM
  viability, T/C: 73.7%
Second compound 0.03 µM, first compound 0.00949 µM
  viability, T/C: 63.8%
Second compound 0.03 µM, first compound 0.03 µM
  viability, T/C: 33%
Second compound 0.03 µM, first compound 0.0949 µM
  viability, T/C: 20.9%
Second compound 0.03 µM, first compound 0.3 µM
  viability, T/C: 19%
Second compound 0.0949 µM, first compound 0.000949 µM
  viability, T/C: 72.8%
Second compound 0.0949 µM, first compound 0.003 µM
  viability, T/C: 66.1%
Second compound 0.0949 µM, first compound 0.00949 µM
  viability, T/C: 58.4%
Second compound 0.0949 µM, first compound 0.03 µM
  viability, T/C: 34.7%
Second compound 0.0949 µM, first compound 0.0949 µM
  viability, T/C: 21.8%
Second compound 0.0949 µM, first compound 0.3 µM
  viability, T/C: 18%
Second compound 0.3 µM, first compound 0.000949 µM
  viability, T/C: 69.1%
Second compound 0.3 µM, first compound 0.003 µM
  viability, T/C: 63.7%
Second compound 0.3 µM, first compound 0.00949 µM
  viability, T/C: 53.9%
Second compound 0.3 µM, first compound 0.03 µM
  viability, T/C: 29.6%
Second compound 0.3 µM, first compound 0.0949 µM
  viability, T/C: 19%
Second compound 0.3 µM, first compound 0.3 µM
  viability, T/C: 14.8%
